# Where “and” joins values, the source holds several entries; their conditions need not be identical. Equal entries are not always repeated.
# Tests used:
# Assay type in all cases: in vivo, human
# [1] = test system: concentration and attention of participants with Subjective Cognitive Decline; assay: Cambridge Brain Sciences (CBS) Feature Match test; conditions: for Feature Match actual score: Week 4, normal 87-113; for Feature Match percentage change: Week 8, over 8 weeks
# Description: (§1) The Cambridge Brain Sciences (CBS) included a battery of four tests to measure various aspects of cognition and that affected different regions of the brain. Normal scores for each test ranged from 87 to 113.
# The fourth test is the Feature Match (aka Feature Selection), which addresses concentration and attention, and correlates well with aging. It can detect early Alzheimer's disease, and non-Alzheimer's dementia.
# (§2) The data are presented as mean±standard deviation (S.D.) at baseline, week 4, and week 8. Results from the Cognitive Failures Questionnaire and Cambridge Brain Sciences are compared using the Student's t-test in each intervention group between baseline and week 4 and between baseline and week 8. Significance was defined as p≤0.05. At each time point, the percentage change was compared with the values at baseline. This calculation was only obtained from the means between each time point, and the statistical analysis was not made on these percentage changes.
# (§3) For Cambridge Brain Sciences tests, some responses were flagged as being a highly unusual response (found in less than 1% of Cambridge Brain Sciences normative database). […] These scores were considered to be invalid and excluded from the final analysis. For each participant, the combined mean scores of all four CBS tests were summed for at baseline and at week 8. The participants were then grouped according to these mean baseline score of all four tests as: below average (less than or equal to 100) and average and above (greater than 100).
# [2] = test system: reasoning and planning of participants with Subjective Cognitive Decline; assay: Cambridge Brain Sciences (CBS) Spatial Planning test
# Description: as §1
# The first test is the Spatial Planning test, which addresses reasoning and planning. It tests for non-Alzheimer's dementia but has a high correlation with aging. It has a high reproducibility and is useful to distinguish impaired and unimpaired populations. The parts of the brain implicated include: frontal lobe, mid-dorsolateral frontal cortex, caudate nucleus, thalamus, lateral premotor, and anterior cingulate.
# as §2, §3
# [3] = test system: visuospatial and working memory of participants with Subjective Cognitive Decline; assay: Cambridge Brain Sciences (CBS) Monkey Ladder test; conditions: for Monkey Ladder actual score: Week 4, normal 87-113
# Description: as §1
# The third test is the Monkey Ladder, which relates visuospatial and working memory. The test can detect early Alzheimer's disease, non-Alzheimer's dementia, and age-related cognitive decline. The parts of the brain involved included: the mid-dorsolateral prefrontal cortex, premotor cortex, and posterior parietal cortex.
# as §2, §3
# [4] = test system: cognitive function of participants with Subjective Cognitive Decline; assay: Cambridge Brain Sciences (CBS) battery, combined means of all four tests
# Description: as §1, §3
# [5] = one capsule daily (90 mg BCP), N=24
# [6] = two capsules daily (180 mg BCP), N=25
# [7] = two capsules daily (180 mg BCP)
# [8] = one capsule daily (90 mg BCP), N=26
# [9] = one capsule daily (90 mg BCP), Week 8, over 8 weeks
# [10] = one capsule daily (90 mg BCP), N=23
# [11] = one capsule daily (90 mg BCP), all participants
# [12] = one capsule daily (90 mg BCP), baseline mean greater than 100
# [13] = one capsule daily (90 mg BCP), baseline mean less than or equal to 100
# [14] = two capsules daily (180 mg BCP), all participants
# [15] = two capsules daily (180 mg BCP), baseline mean greater than 100
# [16] = two capsules daily (180 mg BCP), baseline mean less than or equal to 100
compound,measurement,setting,value
"C=C1CC/C=C(\C)CC[C@@H]2[C@@H]1CC2(C)C [BCP, beta-caryophyllene]",Feature Match: % of participants with no change between baseline and week 8,[1]; [5],(13%)
same,Feature Match: number of participants improved between baseline and week 8,[1]; [5],13
same,Feature Match: number of participants with no change between baseline and week 8,[1]; [5],3
same,Feature Match: number of participants worsened between baseline and week 8,[1]; [5],8
same,Feature Match actual score,[1]; one capsule daily (90 mg BCP),98.3 ± 6.9
same,Feature Match percentage change,[1]; one capsule daily (90 mg BCP),+2.0%
same,Feature Match: % of participants with no change between baseline and week 8,[1]; [6],(16%)
same,Feature Match: number of participants improved between baseline and week 8,[1]; [6],10
same,Feature Match: number of participants with no change between baseline and week 8,[1]; [6],4
same,Feature Match: number of participants worsened between baseline and week 8,[1]; [6],11
same,Feature Match actual score,[1]; [7],98.4 ± 7.6
same,Feature Match percentage change,[1]; [7],No change
same,Spatial Planning: % of participants with no change between baseline and week 8,[2]; [8],(8%)
same,Spatial Planning: number of participants improved between baseline and week 8,[2]; [8],19
same,Spatial Planning: number of participants with no change between baseline and week 8,[2]; [8],2
same,Spatial Planning: number of participants worsened between baseline and week 8,[2]; [8],5
same,Spatial Planning actual score,"[2]; one capsule daily (90 mg BCP), Week 4, normal 87-113",104 ± 9
same,Spatial Planning percentage change,[2]; [9],+2.3%
same,Spatial Planning: % of participants with no change between baseline and week 8,[2]; [6],(8%)
same,Spatial Planning: number of participants improved between baseline and week 8,[2]; [6],18
same,Spatial Planning: number of participants with no change between baseline and week 8,[2]; [6],2
same,Spatial Planning: number of participants worsened between baseline and week 8,[2]; [6],5
same,Monkey Ladder: % of participants with no change between baseline and week 8,[3]; [10],(4%)
same,Monkey Ladder: number of participants improved between baseline and week 8,[3]; [10],16
same,Monkey Ladder: number of participants with no change between baseline and week 8,[3]; [10],1
same,Monkey Ladder: number of participants worsened between baseline and week 8,[3]; [10],6
same,Monkey Ladder actual score,[3]; one capsule daily (90 mg BCP),103.8 ± 6.7
same,Monkey Ladder percentage change,[3]; [9],+2.5%
same,Monkey Ladder: % of participants with no change between baseline and week 8,[3]; [6],(28%)
same,Monkey Ladder: number of participants improved between baseline and week 8,[3]; [6],17
same,Monkey Ladder: number of participants with no change between baseline and week 8,[3]; [6],7
same,Monkey Ladder: number of participants worsened between baseline and week 8,[3]; [6],1
same,Monkey Ladder actual score,[3]; [7],103.7 ± 8.1
same,% of subjects with sub-optimal baseline score (less than 87) who improved to a normal score on any test,"[4]; one capsule daily (90 mg BCP), during the 8-week study",31%
same,Mean of four tests scores at week 8,[4]; [11],99.8
same,"Percentage change (mean ± S.D.) of mean of four tests scores, baseline to week 8",[4]; [11],3.6±10.0%
same,Mean of four tests scores at week 8,[4]; [12],108.7
same,"Percentage change (mean ± S.D.) of mean of four tests scores, baseline to week 8",[4]; [12],−0.7±9.4%
same,Mean of four tests scores at week 8,[4]; [13],96.8
same,"Percentage change (mean ± S.D.) of mean of four tests scores, baseline to week 8",[4]; [13],5.0±9.8% and 5%
same,Mean of four tests scores at week 8,[4]; [14],101.0
same,"Percentage change (mean ± S.D.) of mean of four tests scores, baseline to week 8",[4]; [14],4.6±12.1%
same,Mean of four tests scores at week 8,[4]; [15],104.2
same,"Percentage change (mean ± S.D.) of mean of four tests scores, baseline to week 8",[4]; [15],−1.5% and −1.5 ± 7.5%
same,Mean of four tests scores at week 8,[4]; [16],98.8
same,"Percentage change (mean ± S.D.) of mean of four tests scores, baseline to week 8",[4]; [16],9.0±12.9% and 9%

# From patent US11911346B2, “Orally administrated therapeutic for treating mild cognitive impairment (MCI) and improving human cognitive function” (BrainCare LLC, priority 2021, dated 2024)
